# Laboratory results: patent US12064402B2, “Binge behavior regulators” (Clearmind Medicine Inc., priority 2014, dated 2024)
# Legend:
# [1] = amount of alcoholic beverage drunk in a binge session after the drinking regulator; format: in vivo; conditions: 70 mg of drinking regulator; for amount of beer drunk in a binge session: reduced from 1.5 liter; for amount of wine drunk in a binge session: reduced from 1000 ml
# Experimental: In exemplary embodiments, administration of the amount of 70 mg of drinking regulator selected form Compound 1 or Compound 2 described herein reduced the amount of beer drunk in a binge session from 1.5 liter to 0.5 liter, or the amount of wine drunk in a binge session from 1000 ml to 250 ml.
# [2] = over six months, when used with counseling; cited from earlier work
SMILES,amount of beer drunk in a binge session [1] [L],amount of wine drunk in a binge session [1] [mL],cut drinking [2] [%]
"COc1cc2c(cc1OC)CC(N)C2 [Compound 2, 5,6-dimethoxy-2-aminoindan]",0.5,250,
C=C1CC[C@@]2(O)[C@H]3Cc4ccc(O)c5c4[C@@]2(CCN3CC2CC2)[C@H]1O5 [Nalmefene],,,61
"COc1ccc2c(c1)CC(N)C2 (centres unmarked) [Compound 1, 5-methoxy-2-aminoindan]",0.5,250,
